Reference: patent US11691984B2, “Compounds and methods for DCAF-mediated protein degradation” (The Scripps Research Institute, priority 2018, dated 2023)
Values belong to the compound of their own block, whether it stands above or below them. Residues, ends and D or L forms follow the SMILES beside them. *: point of attachment. Cbz = O=C(OCc1ccccc1)*

Assays:
FLAG-FKBP12_NLS [1] = target: T1, FLAG-FKBP12_NLS (Homo sapiens, UniProt P62942); assay: Western blot of stably expressed FLAG-FKBP12_NLS in MDA-MB-231 cells; format: cell-based; design: expressed in transfected cells; host or cells: HEK293T, MDA-MB-231 and HEK293 DCAF16+/+ and DCAF16-/- clones (lentiviral pCDH-CMV-MCS-EF1-Puro); conditions: 8 hours; for effect of inhibitor on degradation of FLAG-FKBP12_NLS in MDA-MB-231 cells: KB02-PEG0-SLF, KB02-SLF or KB02-PEG4-SLF 1 μM
T1 sequence (P62942 whole entry): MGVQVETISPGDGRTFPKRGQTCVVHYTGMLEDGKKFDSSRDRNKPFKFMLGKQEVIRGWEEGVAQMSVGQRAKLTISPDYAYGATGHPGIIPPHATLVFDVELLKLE
Description: (§1) FLAG-FKBP12 or FLAG-FKBP12_NLS lentivirus was generated by co-transfection of FLAG-FKBP12 or FLAG-FKBP12_NLS, pCMV-dR8.2 and pMD2.G into HEK 293T cells using FuGene 6 transfection reagent (Promega). Virus-containing medium were collected 48 h after transfection, filtered with […] filter, and used to transduce HEK293T and MDA-MB-231 cells in the presence of 10 μg/mL polybrene (Santa Cruz). 72 h after transduction, puromycin (2 μg/mL) was added to cells. HEK293T cells stably expressing FLAG-FKBP12 or FLAG-FKBP12_NLS were obtained after puromycin selection for 7 days. HEK293T cells stably expressing pCDH empty vector were generated in parallel as control.
(§2) Cells were collected and lysed in 1% NP-40 lysis buffer (25 mM Tris-HCl pH 7.4, 150 mM NaCl, 10% glycerol, 1% Nonidet P-40) with complete protease inhibitor cocktail (Roche). Cells were vortexed and sonicated for 5 pulses (40%, 4). The supernatant was collected after centrifugation at 16,000 g for 10 min at 4° C. Protein concentration was determined by DC assay (Bio-Rad). Protein lysate was heated at 95° C. for 5 min in 1× Laemmli sample buffer. Proteins were resolved by 12% or 14% Novex Tris-Glycine Mini Gels (Invitrogen) and transferred to polyvinylidene fluoride (PVDF) membrane (0.2 Bio-Rad). The membrane was blocked with 5% BSA in TBST buffer (0.1% Tween 20, 20 mM Tris-HCl 7.6, 150 mM NaCl) at room temperature for 1 h. The antibody was diluted with fresh 5% BSA in TBST buffer (1:10000 dilution for FLAG, HA and β-Actin, 1:1000 dilution for others) and incubated with membrane (1 h room temperature for FLAG, HA and β-Actin, overnight 4° C. for others). Membrane was washed three times with TBST buffer and incubated with secondary antibody (1:5000 dilution in 5% BSA in TBST) at room temperature for 1 h. Membrane was washed three times with TBST buffer. The chemiluminescence signal in membrane was recorded after developing in ECL or ECL plus western blotting detection reagent using CL-XPosure film (Thermo Scientific). Relative band intensities were quantified using ImageJ.

BRD4 = target: T2, BRD4 (Homo sapiens, UniProt O60885); assay: Western blot of endogenous BRD4 in HEK293T cells; format: cell-based; conditions: 20 μM KB02-JQ1; 10 μM MG132 or 1 μM MLN4924
T2 construct: degradation of endogenous BRD4 in HEK293T cells; endogenous in cells; host or cells: HEK293T (A10, A16); HEK293 DCAF16+/+ and DCAF16-/- clones (A11)
Description: as §2

FLAG-FKBP12_NLS [2] = target: T1, FLAG-FKBP12_NLS; assay: Anti-FLAG western blot of stably expressed nuclear FKBP12 (FLAG-FKBP12_NLS) in HEK293T cells; format: cell-based; design: expressed in transfected cells; host or cells: HEK293T, MDA-MB-231 and HEK293 DCAF16+/+ and DCAF16-/- clones (lentiviral pCDH-CMV-MCS-EF1-Puro); conditions: for effect of inhibitor on KB02-SLF-mediated loss of FKBP12_NLS: KB02-SLF 1 μM with MG132 10 μM or MLN4924 1 μM; for nuclear FKBP12 (FKBP12_NLS) protein level: 2 μM, 8 or 24 h
Description: FLAG-tagged variants of FKBP12 (FLAG-FKBP12) or (2) FKBP12 with a C-terminal nuclear localization sequence (FLAG-FKBP12_NLS) were then stably expressed in HEK293T cells to provide cell models for evaluating cytosolic- and nuclear-localized E3-mediated degradation pathways, respectively.
as §1
shRNA lentivirus was generated by co-transfection of shRNA-containing vector, pCMV-dR8.2 and pMD2.G into HEK 293T cells using FuGene 6 transfection reagent (Promega). Virus-containing medium were collected 48 h after transfection and used to transiently transduce HEK293T cells stably expressing FLAG-FKBP12_NLS for 48 h. Lentiviral shRNAs targeting human DCAF16 or DTL were in pLKO.1 vector and purchased from Sigma. The sequences of shRNAs is described below.
as §2

[3] = target: T3, HA-DCAF16 and FLAG-FKBP12_NLS (Homo sapiens, UniProt P62942+Q9NXF7); assay: Co-immunoprecipitation of HA-DCAF16 with FLAG-FKBP12_NLS (ternary complex) in HEK293T cells; format: cell-based; conditions: 5 μM, MG132 10 μM, 2 hours
T3 construct: expressed in transfected cells; host or cells: HEK293T stably expressing FLAG-FKBP12_NLS, transiently transfected with HA-DCAF16 (pRK5)
T3 sequence (Q9NXF7 whole entry): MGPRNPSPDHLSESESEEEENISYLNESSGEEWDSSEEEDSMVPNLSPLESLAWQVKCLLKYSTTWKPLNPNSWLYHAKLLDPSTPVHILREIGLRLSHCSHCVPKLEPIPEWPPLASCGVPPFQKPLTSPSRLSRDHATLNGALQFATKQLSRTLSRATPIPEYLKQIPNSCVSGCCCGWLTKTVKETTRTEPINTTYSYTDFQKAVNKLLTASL
T3 sequence (P62942 2-108): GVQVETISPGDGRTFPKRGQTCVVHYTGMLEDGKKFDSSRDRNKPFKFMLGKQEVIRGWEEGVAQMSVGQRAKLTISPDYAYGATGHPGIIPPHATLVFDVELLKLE
T3 sequence (Q16531 whole entry partner): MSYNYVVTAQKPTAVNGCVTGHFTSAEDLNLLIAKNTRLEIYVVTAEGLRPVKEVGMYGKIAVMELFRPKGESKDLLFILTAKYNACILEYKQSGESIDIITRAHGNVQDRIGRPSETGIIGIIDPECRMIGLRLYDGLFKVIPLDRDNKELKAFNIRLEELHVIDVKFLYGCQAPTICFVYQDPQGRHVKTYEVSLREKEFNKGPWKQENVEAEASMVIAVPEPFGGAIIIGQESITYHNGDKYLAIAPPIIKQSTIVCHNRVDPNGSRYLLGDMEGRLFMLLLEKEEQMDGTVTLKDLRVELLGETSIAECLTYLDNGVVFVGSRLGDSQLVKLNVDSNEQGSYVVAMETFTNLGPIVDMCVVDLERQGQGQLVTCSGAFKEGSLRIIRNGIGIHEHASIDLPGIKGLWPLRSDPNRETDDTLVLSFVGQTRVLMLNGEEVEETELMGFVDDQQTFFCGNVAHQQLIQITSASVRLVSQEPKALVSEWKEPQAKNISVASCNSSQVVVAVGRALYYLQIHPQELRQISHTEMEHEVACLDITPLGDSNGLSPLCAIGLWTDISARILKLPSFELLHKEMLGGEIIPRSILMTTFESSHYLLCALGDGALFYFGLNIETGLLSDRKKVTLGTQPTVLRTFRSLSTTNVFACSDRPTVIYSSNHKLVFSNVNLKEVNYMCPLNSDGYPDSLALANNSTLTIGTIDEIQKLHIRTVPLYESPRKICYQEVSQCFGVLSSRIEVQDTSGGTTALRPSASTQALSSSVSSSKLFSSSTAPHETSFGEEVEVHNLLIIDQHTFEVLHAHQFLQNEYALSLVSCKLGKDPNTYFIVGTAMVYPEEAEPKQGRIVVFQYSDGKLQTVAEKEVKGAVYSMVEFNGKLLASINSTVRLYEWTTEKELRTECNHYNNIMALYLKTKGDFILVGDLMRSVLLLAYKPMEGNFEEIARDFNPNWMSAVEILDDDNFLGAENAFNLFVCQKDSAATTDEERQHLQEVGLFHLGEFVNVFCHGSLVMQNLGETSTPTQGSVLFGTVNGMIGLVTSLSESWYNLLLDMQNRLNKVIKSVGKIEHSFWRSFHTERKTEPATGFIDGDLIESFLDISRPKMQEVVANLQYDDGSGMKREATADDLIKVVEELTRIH
Description: as §2
Cells were collected and lysed in 1% NP-40 lysis buffer with complete protease inhibitor cocktail on ice for 10 min, followed by 5 pulses of sonication (40%, 4). After centrifugation at 16,000 g for 10 min at 4° C., the supernatant was collected. FLAG affinity gel (20 μL slurry per sample) was incubated with protein lysates at 4° C. for 1 h and washed four times with IP washing buffer. The affinity gel was heated at 95° C. for 10 min in 2× Laemmli sample buffer, followed by western blot analysis.

HEK293T cells = assay: Cell viability assay (Cell Titer Glo); format: cell-based, human; conditions: 24 hours, read-out: cytotoxicity IC50
Description: HEK293T cells were seeded in 96-well clear bottom white plate (Corning) at 3×10^4 cells per well in 100 μL of DMEM medium and grown for 24 h. The cells were treated with 0.625, 1.25, 2.5, 5, 10, 20 and 40 μM of KB02-SLF or KB02-JQ1 (DMSO stock, final DMEM concentration is 0.1% (v/v)) in 100 μL of DMEM medium for 24 h. 50 μL of Cell Titer Glo reagent (Promega) was added to each well and incubate for 10 min at room temperature. The luminescence was read on CLARIOstar (BMG LAB TECH).

SMILES: CC(C)C[C@@H](C=O)NC(=O)[C@H](CC(C)C)NC(=O)[C@H](CC(C)C)NC(=O)OCc1ccccc1 [MG132, reference compound] (Cbz-Leu-Leu-Leu-aldehyde)
effect of inhibitor on degradation of FLAG-FKBP12_NLS in MDA-MB-231 cells (FLAG-FKBP12_NLS [1]): blocked
effect of inhibitor on KB02-JQ1-mediated BRD4 degradation (BRD4): blocked
effect of inhibitor on KB02-SLF-mediated loss of FKBP12_NLS (FLAG-FKBP12_NLS [2]; 8 h): blocked

SMILES: COc1ccc2c(c1)CCCN2C(=O)CCl [KB02, reference compound]
IC50 (HEK293T cells): 23 ± 1.2 µM
FKBP12_NLS level in cells treated with the separate components of KB02-SLF (FLAG-FKBP12_NLS [2]; HEK293T, 1.5 μM, 8 h): FKBP12_NLS was not reduced

SMILES: CCC(=O)N1CCCc2cc(OCC(=O)NCCOCCOCCC(=O)Nc3cccc([C@@H](CCc4ccc(OC)c(OC)c4)OC(=O)[C@@H]4CCCCN4C(=O)C(=O)C(C)(C)CC)c3)ccc21 [C-KB02-SLF, (R)-3-(3,4-dimethoxyphenyl)-1-(3-(3-(2-(2-(2-((1-propionyl-1,2,3,4-tetrahydroquinolin-6-yl)oxy)acetamido)ethoxy)ethoxy)propanamido)phenyl)propyl (S)-1-(3,3-dimethyl-2-oxopentanoyl)piperidine-2-carboxylate]
nuclear FKBP12 (FKBP12_NLS) protein level (FLAG-FKBP12_NLS [2]; HEK293T): Reductions in FKBP12_NLS were not observed
co-immunoprecipitation of HA-DCAF16 with FLAG-FKBP12_NLS [3]: DCAF16 was not co-immunoprecipitated

Continued, in another order:

nuclear FKBP12 (FKBP12_NLS) protein level (FLAG-FKBP12_NLS [2]; HEK293T): did not support FKBP12_NLS degradation
co-immunoprecipitation of HA-DCAF16 with FLAG-FKBP12_NLS [3]: DCAF16 was not co-immunoprecipitated
SMILES: CCC(C)(C)C(=O)C(=O)N1CCCC[C@H]1C(=O)O[C@H](CCc1ccc(OC)c(OC)c1)c1cccc(NC(=O)CCOCCOCCNC(=O)CCNC(=O)c2cc(NC(=O)CCl)cc(C(F)(F)F)c2)c1 [KB03-SLF, (R)-1-(3-(1-(3-(2-chloroacetamido)-5-(trifluoromethyl)phenyl)-1,5-dioxo-9,12-dioxa-2,6-diazapentadecan-15-amido)phenyl)-3-(3,4-dimethoxyphenyl)propyl (S)-1-(3,3-dimethyl-2-oxopentanoyl)piperidine-2-carboxylate]

nuclear FKBP12 (FKBP12_NLS) protein level (FLAG-FKBP12_NLS [2]; HEK293T): did not support FKBP12_NLS degradation
co-immunoprecipitation of HA-DCAF16 with FLAG-FKBP12_NLS [3]: DCAF16 was not co-immunoprecipitated
SMILES: C=CC(=O)N(c1ccc(Br)cc1)c1ccc(C(=O)NCCOCCOCCOCCC(=O)Nc2cccc([C@@H](CCc3ccc(OC)c(OC)c3)OC(=O)[C@@H]3CCCCN3C(=O)C(=O)C(C)(C)CC)c2)cc1 [KB05-SLF, (R)-1-(3-(1-(4-(N-(4-bromophenyl)acrylamido)phenyl)-1-oxo-5,8,11-trioxa-2-azatetradecan-14-amido)phenyl)-3-(3,4-dimethoxyphenyl)propyl (S)-1-(3,3-dimethyl-2-oxopentanoyl)piperidine-2-carboxylate]

co-immunoprecipitation of HA-DCAF16 with FLAG-FKBP12_NLS [3]: co-immunoprecipitated with HA-DCAF16
SMILES: CCC(C)(C)C(=O)C(=O)N1CCCC[C@H]1C(=O)O[C@H](CCc1ccc(OC)c(OC)c1)c1cccc(NC(=O)CCOCCOCCOCCOCCNC(=O)COc2ccc3c(c2)CCCN3C(=O)CCl)c1 [KB02-PEG4-SLF, (R)-1-(3-(1-((1-(2-chloroacetyl)-1,2,3,4-tetrahydroquinolin-6-yl)oxy)-2-oxo-6,9,12,15-tetraoxa-3-azaoctadecan-18-amido)phenyl)-3-(3,4-dimethoxyphenyl)propyl (S)-1-(3,3-dimethyl-2-oxopentanoyl)piperidine-2-carboxylate]
degradation of FLAG-FKBP12_NLS in MDA-MB-231 cells (FLAG-FKBP12_NLS [1]; 1 μM): degradation of stably expressed FLAG-FKBP12_NLS

effect of inhibitor on degradation of FLAG-FKBP12_NLS in MDA-MB-231 cells (FLAG-FKBP12_NLS [1]): blocked
effect of inhibitor on KB02-JQ1-mediated BRD4 degradation (BRD4): blocked
effect of inhibitor on KB02-SLF-mediated loss of FKBP12_NLS (FLAG-FKBP12_NLS [2]; 8 h): blocked
SMILES: NS(=O)(=O)OC[C@@H]1C[C@@H](n2ccc3c(N[C@H]4CCc5ccccc54)ncnc32)C[C@@H]1O [MLN4924, reference compound]
